Where “and” joins values, the source holds several entries; their conditions need not be identical. Equal entries are not always repeated. Inconclusive results and toxic doses are left out.
Test system: L1210 leukemia ip in BDF1 mice, survival T/C
Assay: NCI In Vivo Anticancer Drug Screen. Data for tumor model L1210 Leukemia (intraperitoneal) in B6D2F1 (BDF1) mice
Details: endpoint: mean survival time, higher = longer survival
How it was run: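 Tumor cells were implanted, animals were treated, and survival was followed. The result divides the treated measurement by the vehicle-control measurement.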

[1] = dose: 100.0 mg/kg/injection, schedule: Q01DX009 (ip), vehicle: saline
[2] = dose: 25.0 mg/kg/injection, schedule: Q01DX009 (ip), vehicle: Klucel (hydroxypropylcellulose) (HPC)
[3] = dose: 50.0 mg/kg/injection, schedule: Q01DX009 (ip), vehicle: Klucel (hydroxypropylcellulose) (HPC)
[4] = dose: 100.0 mg/kg/injection, schedule: Q01DX009 (ip), vehicle: Klucel (hydroxypropylcellulose) (HPC)
[5] = dose: 12.5 mg/kg/injection, schedule: Q01DX009 (ip), vehicle: Klucel (hydroxypropylcellulose) (HPC)
[6] = dose: 200.0 mg/kg/injection, schedule: Q01DX009 (ip), vehicle: saline
[7] = dose: 400.0 mg/kg/injection, schedule: Q01DX009 (ip), vehicle: saline
[8] = dose: 200.0 mg/kg/injection, schedule: Q01DX009 (ip), vehicle: Klucel (hydroxypropylcellulose) (HPC)
[9] = dose: 400.0 mg/kg/injection, schedule: Q01DX009 (ip), vehicle: Klucel (hydroxypropylcellulose) (HPC)
[10] = dose: 100.0 mg/kg/injection, schedule: Q04DX002 (ip), vehicle: saline
[11] = dose: 200.0 mg/kg/injection, schedule: Q04DX002 (ip), vehicle: saline
[12] = dose: 400.0 mg/kg/injection, schedule: Q04DX002 (ip), vehicle: saline
[13] = dose: 100.0 mg/kg/injection, schedule: Q04DX003 (ip), vehicle: Klucel (hydroxypropylcellulose) (HPC)
[14] = dose: 200.0 mg/kg/injection, schedule: Q04DX003 (ip), vehicle: Klucel (hydroxypropylcellulose) (HPC)
[15] = dose: 400.0 mg/kg/injection, schedule: Q04DX003 (ip), vehicle: Klucel (hydroxypropylcellulose) (HPC)

CCOC(OCC)C(=O)NNC(C)C
T/C (dose: 25.0 mg/kg/injection, schedule: Q01DX009 (ip), vehicle: saline): 95 % of control
T/C (dose: 50.0 mg/kg/injection, schedule: Q01DX009 (ip), vehicle: saline): 97 % of control
T/C [1]: 108 % of control

COC(=O)c1ccc(OC(=O)Nc2ccc([N+](=O)[O-])cc2OC)cc1
T/C [2]: 96 % of control
T/C [3]: 101 % of control
T/C [4]: 93 % of control and 100 % of control

COc1ccc(NC(=O)Nc2cccc(C)c2C)cc1
T/C (dose: 100.0 mg/kg/injection, schedule: Q01DX009 (ip), vehicle: gum acacia): 96 % of control
T/C (dose: 100.0 mg/kg/injection, schedule: Q04DX003 (ip), vehicle: gum acacia): 99 % of control
T/C (dose: 200.0 mg/kg/injection, schedule: Q01DX009 (ip), vehicle: gum acacia): 97 % of control
T/C (dose: 200.0 mg/kg/injection, schedule: Q04DX003 (ip), vehicle: gum acacia): 91 % of control
T/C (dose: 400.0 mg/kg/injection, schedule: Q01DX009 (ip), vehicle: gum acacia): 94 % of control
T/C (dose: 400.0 mg/kg/injection, schedule: Q04DX003 (ip), vehicle: gum acacia): 89 % of control

O=C(O)CC(C[N+](=O)[O-])C(F)(F)C(F)(F)C(F)(F)F (stereo not given)
T/C (dose: 100.0 mg/kg/injection, schedule: Q01DX001 (ip), vehicle: saline): 97 % of control
T/C (dose: 200.0 mg/kg/injection, schedule: Q01DX001 (ip), vehicle: saline): 112 % of control
T/C (dose: 400.0 mg/kg/injection, schedule: Q01DX001 (ip), vehicle: saline): 101 % of control

CC(C)=CCN(CC=C(C)C)CCC(C)(C(N)=O)c1cccc2ccccc12 (stereo not given)
T/C (dose: 6.25 mg/kg/injection, schedule: Q01DX009 (ip), vehicle: Klucel (hydroxypropylcellulose) (HPC)): 101 % of control
T/C (dose: 6.25 mg/kg/injection, schedule: Q04DX003 (ip), vehicle: Klucel (hydroxypropylcellulose) (HPC)): 104 % of control
T/C [5]: 98 % of control
T/C (dose: 12.5 mg/kg/injection, schedule: Q04DX003 (ip), vehicle: Klucel (hydroxypropylcellulose) (HPC)): 100 % of control
T/C [2]: 101 % of control
T/C (dose: 25.0 mg/kg/injection, schedule: Q04DX003 (ip), vehicle: Klucel (hydroxypropylcellulose) (HPC)): 105 % of control

CCCCOC(=O)CNC(=O)N(CC)C(=NCC)c1ccc(NC(=O)c2ccc(C(=O)Nc3ccc(C(=NCC)N(CC)C(=O)NCC(=O)OCCCC)cc3)cc2)cc1
T/C (dose: 1.87 mg/kg/injection, schedule: Q01DX015 (ip), vehicle: methylcellulose (MC)): 106 % of control
T/C (dose: 7.5 mg/kg/injection, schedule: Q01DX015 (ip), vehicle: methylcellulose (MC)): 162 % of control and 189 % of control
T/C (dose: 15.0 mg/kg/injection, schedule: Q01DX015 (ip), vehicle: methylcellulose (MC)): 121 % of control

CC(N)C(=O)Nc1ccc(C(=O)O)c(O)c1 (stereo not given)
T/C [1]: 109 % of control
T/C [6]: 102 % of control
T/C [7]: 106 % of control

CCS(=O)(=O)Cc1ccccc1
T/C [4]: 100 % of control
T/C [8]: 106 % of control
T/C [9]: 102 % of control

c1ccc(CCSCCCSCCc2ccccn2)nc1
T/C (dose: 50.0 mg/kg/injection, schedule: Q04DX002 (ip), vehicle: saline): 98 % of control
T/C [10]: 98 % of control
T/C [11]: 92 % of control
T/C [12]: 95 % of control

CC(=O)C1CCCC23CC(CC12)C(C)(C)C3Br (stereo not given)
T/C [13]: 100 % of control
T/C [14]: 103 % of control
T/C [15]: 97 % of control

CS/C(=C\C(=O)c1ccccc1)C(=O)O
T/C [10]: 110 % of control
T/C [11]: 100 % of control
T/C [12]: 100 % of control

CC1(C)N=C(N)N=C(N)N1c1cccc(CNc2ccccc2)c1
T/C (dose: 3.12 mg/kg/injection, schedule: Q01DX001 (ip), vehicle: saline): 95 % of control
T/C (dose: 6.25 mg/kg/injection, schedule: Q01DX001 (ip), vehicle: saline): 103 % of control
T/C (dose: 12.5 mg/kg/injection, schedule: Q01DX001 (ip), vehicle: saline): 98 % of control
T/C (dose: 25.0 mg/kg/injection, schedule: Q01DX001 (ip), vehicle: saline): 93 % of control

c1cc[c]([Sb]([c]2ccccc2)[n]2ccnc2)cc1
T/C (dose: 5.0 mg/kg/injection, schedule: Q04DX002 (ip), vehicle: saline with Tween-80): 97 % of control
T/C (dose: 10.0 mg/kg/injection, schedule: Q04DX002 (ip), vehicle: saline with Tween-80): 97 % of control

Cc1ccc(S(=O)(=O)OC2C(O)C(CO)OC2n2c(Br)c(C(N)=O)c3c(N)ncnc32)cc1 (stereo not given)
T/C (dose: 25.0 mg/kg/injection, schedule: Q01DX009 (ip), vehicle: water): 100 % of control
T/C (dose: 50.0 mg/kg/injection, schedule: Q01DX009 (ip), vehicle: water): 97 % of control
T/C (dose: 100.0 mg/kg/injection, schedule: Q01DX009 (ip), vehicle: water): 95 % of control
T/C (dose: 200.0 mg/kg/injection, schedule: Q01DX009 (ip), vehicle: water): 93 % of control

O=C(NC(=O)c1ccccc1)Nc1cccc2ccccc12
T/C (dose: 100.0 mg/kg/injection, schedule: Q04DX002 (ip), vehicle: gum acacia): 97 % of control
T/C (dose: 200.0 mg/kg/injection, schedule: Q04DX002 (ip), vehicle: gum acacia): 90 % of control
T/C (dose: 400.0 mg/kg/injection, schedule: Q04DX002 (ip), vehicle: gum acacia): 90 % of control

CCOC(=O)/C=C\c1c(OC)nc2ccccn2c1=O (tested in a mixture with another compound)
T/C [4]: 101 % of control
T/C [13]: 94 % of control
T/C [8]: 100 % of control
T/C [14]: 92 % of control
T/C [9]: 101 % of control
T/C [15]: 95 % of control

O=C(Nc1ccc(Cl)cc1C(F)(F)F)Oc1ccc(Cl)cc1Br
T/C (dose: 50.0 mg/kg/injection, schedule: Q01DX009 (ip), vehicle: saline with Tween-80): 98 % of control
T/C (dose: 100.0 mg/kg/injection, schedule: Q01DX009 (ip), vehicle: saline with Tween-80): 103 % of control
T/C (dose: 200.0 mg/kg/injection, schedule: Q01DX009 (ip), vehicle: saline with Tween-80): 103 % of control

N#CSc1ccc(Nc2ccc(SC#N)cc2)cc1
T/C [5]: 95 % of control
T/C [2]: 98 % of control

O=C1c2cccc3c([N+](=O)[O-])ccc(c23)C(=O)N1CCCN1CCOCC1
T/C [2]: 104 % of control
T/C [3]: 98 % of control
T/C [4]: 93 % of control and 87 % of control

NCc1cccc(OCCOc2ccccc2)c1
T/C (dose: 100.0 mg/kg/injection, schedule: Q01DX001 (ip), vehicle: saline with Tween-80): 102 % of control
T/C (dose: 200.0 mg/kg/injection, schedule: Q01DX001 (ip), vehicle: saline with Tween-80): 97 % of control
T/C (dose: 400.0 mg/kg/injection, schedule: Q01DX001 (ip), vehicle: saline with Tween-80): 103 % of control

Cc1ccc(CNc2ccccc2)cc1
T/C (dose: 12.5 mg/kg/injection, schedule: Q04DX003 (ip), vehicle: saline with Tween-80): 95 % of control
T/C (dose: 25.0 mg/kg/injection, schedule: Q04DX003 (ip), vehicle: saline with Tween-80): 95 % of control
T/C (dose: 50.0 mg/kg/injection, schedule: Q04DX003 (ip), vehicle: saline with Tween-80): 97 % of control
T/C (dose: 100.0 mg/kg/injection, schedule: Q01DX009 (ip), vehicle: other): 112 % of control
T/C (dose: 200.0 mg/kg/injection, schedule: Q01DX009 (ip), vehicle: other): 93 % of control
T/C (dose: 400.0 mg/kg/injection, schedule: Q01DX009 (ip), vehicle: other): 93 % of control

CC(=O)OI(OC(C)=O)c1ccc(-c2ccccc2)cc1
T/C [4]: 91 % of control
T/C [8]: 102 % of control

O=C(CCN1CC1)OCCc1ccccc1
T/C (dose: 20.0 mg/kg/injection, schedule: Q04DX003 (ip), vehicle: Klucel (hydroxypropylcellulose) (HPC)): 98 % of control
T/C [2]: 111 % of control
T/C (dose: 40.0 mg/kg/injection, schedule: Q04DX003 (ip), vehicle: Klucel (hydroxypropylcellulose) (HPC)): 95 % of control
T/C [3]: 97 % of control
T/C (dose: 80.0 mg/kg/injection, schedule: Q04DX003 (ip), vehicle: Klucel (hydroxypropylcellulose) (HPC)): 101 % of control
T/C [13]: 98 % of control

COc1ccc(Cl)cc1NC(=O)Nc1ccc(CCO)cc1
T/C [1]: 100 % of control
T/C (dose: 100.0 mg/kg/injection, schedule: Q04DX003 (ip), vehicle: saline): 113 % of control
T/C [6]: 91 % of control
T/C (dose: 200.0 mg/kg/injection, schedule: Q04DX003 (ip), vehicle: saline): 103 % of control
T/C [7]: 93 % of control
T/C (dose: 400.0 mg/kg/injection, schedule: Q04DX003 (ip), vehicle: saline): 101 % of control
